Source: PubChem BioAssay (NCI)
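The compound was tested at five concentrations on cells cultured in 96-well plates, with a 48-hour exposure period. TGI: total growth inhibition.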

Experiments:
Experiment in all cases: NCI tumour cell line growth inhibition, 48 h
786-0 renal = test system: 786-0 renal
A498 renal = test system: A498 renal
A549 NSCLC = test system: A549 NSCLC
ACHN renal = test system: ACHN renal
CAKI-1 renal = test system: CAKI-1 renal
CCRF-CEM leukemia = test system: CCRF-CEM leukemia
COLO 205 colon = test system: COLO 205 colon
DLD-1 colon = test system: DLD-1 colon
DMS 114 small cell lung = test system: DMS 114 small cell lung
EKVX NSCLC = test system: EKVX NSCLC
HCC-2998 colon = test system: HCC-2998 colon
HCT-116 colon = test system: HCT-116 colon
HCT-15 colon = test system: HCT-15 colon
HL-60(TB) leukemia = test system: HL-60(TB) leukemia
HOP-62 NSCLC = test system: HOP-62 NSCLC
HOP-92 NSCLC = test system: HOP-92 NSCLC
HT29 colon = test system: HT29 colon
IGROV1 ovarian = test system: IGROV1 ovarian
K-562 leukemia = test system: K-562 leukemia
KM12 colon = test system: KM12 colon
KM20L2 colon = test system: KM20L2 colon
LOX IMVI melanoma = test system: LOX IMVI melanoma
LXFL 529 NSCLC = test system: LXFL 529 NSCLC
M14 melanoma = test system: M14 melanoma
MALME-3M melanoma = test system: MALME-3M melanoma
MOLT-4 leukemia = test system: MOLT-4 leukemia
NCI-H226 lung = test system: NCI-H226 lung
NCI-H23 lung = test system: NCI-H23 lung
NCI-H460 lung = test system: NCI-H460 lung
OVCAR-3 ovarian = test system: OVCAR-3 ovarian
OVCAR-4 ovarian = test system: OVCAR-4 ovarian
OVCAR-5 ovarian = test system: OVCAR-5 ovarian
OVCAR-8 ovarian = test system: OVCAR-8 ovarian
RPMI-8226 leukemia = test system: RPMI-8226 leukemia
RXF 393 renal = test system: RXF 393 renal
SF-268 CNS = test system: SF-268 CNS
SF-295 CNS = test system: SF-295 CNS
SF-539 CNS = test system: SF-539 CNS
SK-MEL-2 melanoma = test system: SK-MEL-2 melanoma
SK-MEL-28 melanoma = test system: SK-MEL-28 melanoma
SK-MEL-5 melanoma = test system: SK-MEL-5 melanoma
SK-OV-3 ovarian = test system: SK-OV-3 ovarian
SN12C renal = test system: SN12C renal
SNB-19 CNS = test system: SNB-19 CNS
SNB-75 CNS = test system: SNB-75 CNS
SNB-78 CNS = test system: SNB-78 CNS
SR leukemia = test system: SR leukemia
SW-620 colon = test system: SW-620 colon
TK-10 renal = test system: TK-10 renal
U251 CNS = test system: U251 CNS
UACC-257 melanoma = test system: UACC-257 melanoma
UACC-62 melanoma = test system: UACC-62 melanoma
UO-31 renal = test system: UO-31 renal
XF 498 CNS = test system: XF 498 CNS
M19-MEL melanoma = test system: M19-MEL melanoma
NCI-H522 lung = test system: NCI-H522 lung

Cc1ccc(NC(=O)C(=O)C(C2C(C)CC(=O)C2CC(=O)O)[N+](=O)[O-])cc1 (stereo unspecified)
TGI (786-0 renal): > 100 µM | TGI (A498 renal): > 100 µM | TGI (A549 NSCLC): > 100 µM | TGI (ACHN renal): > 100 µM | TGI (CAKI-1 renal): > 100 µM | TGI (CCRF-CEM leukemia): > 100 µM | TGI (COLO 205 colon): > 100 µM | TGI (DLD-1 colon): > 100 µM | TGI (DMS 114 small cell lung): > 100 µM | TGI (EKVX NSCLC): > 100 µM | TGI (HCC-2998 colon): > 100 µM | TGI (HCT-116 colon): > 100 µM | TGI (HCT-15 colon): > 100 µM | TGI (HL-60(TB) leukemia): > 100 µM | TGI (HOP-62 NSCLC): > 100 µM | TGI (HOP-92 NSCLC): > 100 µM | TGI (HT29 colon): > 100 µM | TGI (IGROV1 ovarian): > 100 µM | TGI (K-562 leukemia): > 100 µM | TGI (KM12 colon): > 100 µM | TGI (KM20L2 colon): > 100 µM | TGI (LOX IMVI melanoma): > 100 µM | TGI (LXFL 529 NSCLC): > 100 µM | TGI (M14 melanoma): > 100 µM | TGI (MALME-3M melanoma): > 100 µM | TGI (MOLT-4 leukemia): > 100 µM | TGI (NCI-H226 lung): > 100 µM | TGI (NCI-H23 lung): > 100 µM | TGI (NCI-H460 lung): > 100 µM | TGI (OVCAR-3 ovarian): > 100 µM | TGI (OVCAR-4 ovarian): > 100 µM | TGI (OVCAR-5 ovarian): > 100 µM | TGI (OVCAR-8 ovarian): > 100 µM | TGI (RPMI-8226 leukemia): > 100 µM | TGI (RXF 393 renal): > 100 µM | TGI (SF-268 CNS): > 100 µM | TGI (SF-295 CNS): > 100 µM | TGI (SF-539 CNS): > 100 µM | TGI (SK-MEL-2 melanoma): > 100 µM | TGI (SK-MEL-28 melanoma): > 100 µM | TGI (SK-MEL-5 melanoma): > 100 µM | TGI (SK-OV-3 ovarian): > 100 µM | TGI (SN12C renal): > 100 µM | TGI (SNB-19 CNS): > 100 µM | TGI (SNB-75 CNS): > 100 µM | TGI (SNB-78 CNS): > 100 µM | TGI (SR leukemia): > 100 µM | TGI (SW-620 colon): > 100 µM | TGI (TK-10 renal): > 100 µM | TGI (U251 CNS): > 100 µM | TGI (UACC-257 melanoma): > 100 µM | TGI (UACC-62 melanoma): > 100 µM | TGI (UO-31 renal): > 100 µM | TGI (XF 498 CNS): > 100 µM

CC1=C(C(=O)Nc2cc(F)c(F)cc2F)C(c2ccc3c(c2)OCO3)C(C(=O)Nc2cc(F)c(F)cc2F)=C(C)N1
TGI (786-0 renal): 42.9 µM | TGI (A498 renal): 65.2 µM | TGI (A549 NSCLC): 79.1 µM | TGI (ACHN renal): 60.6 µM | TGI (CAKI-1 renal): 43.5 µM | TGI (CCRF-CEM leukemia): 55.1 µM | TGI (COLO 205 colon): 53.6 µM | TGI (DLD-1 colon): 75.1 µM | TGI (DMS 114 small cell lung): 52.1 µM | TGI (EKVX NSCLC): 73.1 µM | TGI (HCC-2998 colon): 39 µM | TGI (HL-60(TB) leukemia): 36 µM | TGI (HOP-62 NSCLC): 65.1 µM | TGI (HOP-92 NSCLC): 25 µM | TGI (HT29 colon): 61.4 µM | TGI (IGROV1 ovarian): > 100 µM | TGI (K-562 leukemia): 53.8 µM | TGI (KM12 colon): 46 µM | TGI (KM20L2 colon): 62.5 µM | TGI (LOX IMVI melanoma): 35.3 µM | TGI (LXFL 529 NSCLC): 80.4 µM | TGI (M14 melanoma): > 100 µM | TGI (M19-MEL melanoma): 67 µM | TGI (MALME-3M melanoma): 69.4 µM | TGI (MOLT-4 leukemia): 46.5 µM | TGI (NCI-H226 lung): 85.3 µM | TGI (NCI-H23 lung): 71.1 µM | TGI (NCI-H460 lung): 78.7 µM | TGI (NCI-H522 lung): 41.6 µM | TGI (OVCAR-3 ovarian): 40.6 µM | TGI (OVCAR-4 ovarian): 77.7 µM | TGI (OVCAR-5 ovarian): 59.9 µM | TGI (OVCAR-8 ovarian): > 100 µM | TGI (RPMI-8226 leukemia): 52.9 µM | TGI (RXF 393 renal): 35.6 µM | TGI (SF-268 CNS): > 100 µM | TGI (SF-295 CNS): 48.9 µM | TGI (SF-539 CNS): 87 µM | TGI (SK-MEL-2 melanoma): 46.7 µM | TGI (SK-MEL-28 melanoma): > 100 µM | TGI (SK-MEL-5 melanoma): 52.6 µM | TGI (SK-OV-3 ovarian): 65.3 µM | TGI (SN12C renal): 72.7 µM | TGI (SNB-19 CNS): > 100 µM | TGI (SNB-75 CNS): 45.4 µM | TGI (SNB-78 CNS): 62.9 µM | TGI (SW-620 colon): > 100 µM | TGI (TK-10 renal): 64.8 µM | TGI (U251 CNS): > 100 µM | TGI (UACC-257 melanoma): 71.5 µM | TGI (UO-31 renal): 40.8 µM | TGI (XF 498 CNS): 26.8 µM
